Laboratory results as given in patent US6241963A, “Dopamine and serotonin transporter ligands and imaging agents” (priority 1996, dated 2001).

Assays:
[1] = target: T1, rat striatal homogenates (dopamine transporter) (Rattus norvegicus, UniProt P23977); experiment: In vitro binding with rat striatal homogenates using [^125 I]IPT as the ligand; conditions: data not shown, read-out: Kd of the radioligand [^125 I]IPT
T1 construct: from tissue; host or cells: rat striatum homogenate

[2] = target: dopamine transporters (Rattus norvegicus, UniProt P23977); experiment: In vitro autoradiography of rat brain sections; assay type: binding, Male Sprague-Dawley rats; conditions: rat brain coronal sections
dopamine transporters (Rattus norvegicus, UniProt P23977), sequence (P23977 whole entry): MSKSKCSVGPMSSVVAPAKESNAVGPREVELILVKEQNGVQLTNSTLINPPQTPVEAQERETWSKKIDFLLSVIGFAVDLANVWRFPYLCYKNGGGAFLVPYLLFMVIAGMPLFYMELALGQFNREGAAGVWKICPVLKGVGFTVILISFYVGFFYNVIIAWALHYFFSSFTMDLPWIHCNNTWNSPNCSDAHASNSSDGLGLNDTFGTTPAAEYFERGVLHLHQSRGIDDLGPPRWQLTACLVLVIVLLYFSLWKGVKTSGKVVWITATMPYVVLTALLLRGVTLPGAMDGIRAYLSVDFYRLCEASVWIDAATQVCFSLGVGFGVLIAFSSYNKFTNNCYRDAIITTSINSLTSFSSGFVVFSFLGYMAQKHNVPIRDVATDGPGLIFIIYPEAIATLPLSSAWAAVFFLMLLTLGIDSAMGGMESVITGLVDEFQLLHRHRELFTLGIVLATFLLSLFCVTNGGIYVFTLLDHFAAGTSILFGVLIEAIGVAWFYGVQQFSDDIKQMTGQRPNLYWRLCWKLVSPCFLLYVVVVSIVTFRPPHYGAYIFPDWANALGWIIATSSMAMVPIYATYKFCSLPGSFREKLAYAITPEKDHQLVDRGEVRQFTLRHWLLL
Experimental: Male Sprague-Dawley rats ([…]) were sacrificed by decapitation, and the brains were removed, placed in OTC embedding medium (Miles Laboratory, Elkhart, Ind.) frozen in powdered dry ice. After equilibration to -15° C., 20 μm coronal sections were sliced on a cryostat (Hacker Instruments, Fairfield, N.J.), thaw mounted onto gelatin-coated slides, desiccated at 4° C. for 3 hours and kept at -70° C. until use. Prior to the experiment, the slides were dried at room temperature and preincubated for 30 minutes in buffer containing 50 mM Tris-HCl (pH 7.4, 120 mM NaCl). The slides were then incubated for 2 hours in preincubation buffer and the [^99m Tc] compound 3.25 (385,000 cpm/200 μL) in a coplan jar, washed for 1 hour in cold Tris buffer, with one change of buffer, dipped in ice-cold water to remove buffer salts and allowed to dry at room temperature. Nonspecific binding was determined in the presence of 1 μM IPT. These slides were simultaneously exposed to DuPont x-ray film in an autoradiographic cassette for 18 hours. The exposed film was developed with a Kodak automatic film processor.

[3] = tested on: dopamine transporters; conditions: cited from earlier work

T1 sequence (P23977 whole entry): as above

SMILES: COC(=O)[C@H]1[C@@H](c2ccc(Cl)cc2)C[C@@H]2CC[C@H]1N2CC=CI [IPT, N-(3-iodopropen-2-yl)-2β-carbomethoxy-3β-(4-chlorophenyl)tropane, reference compound]
- Kd [1]: 0.2 nM
- Autoradiographic regional labeling [2]: almost identical regional labeling pattern
- Time for reaching optimal uptake ratio / equilibrium ([3]; basal ganglia versus frontal cortex): less than one hour
- Literature binding / localization / biodistribution, in words ([3]; in vivo): much higher binding affinity and selectivity to dopamine reuptake sites
